Species on record: Rattus norvegicus
Assay: DrugMatrix - Regimen: Daily Repeat
Assay type: toxicity, organism-based, Sprague-Dawley
Set-up: regimen Daily Repeat, gender Male, age 6-8 weeks
Conditions: in vivo, po, route oral GAVAGE, vehicle .5 % CMC; for ABSOLUTE BASOPHIL / ABSOLUTE EOSINOPHIL / ABSOLUTE LYMPHOCYTE / ABSOLUTE MONOCYTE / ABSOLUTE SEGMENTED NEUTROPHIL / BASOPHIL / EOSINOPHIL / ERYTHROCYTE COUNT / HEMATOCRIT / HEMOGLOBIN / LEUKOCYTE COUNT / LYMPHOCYTE / MEAN CORPUSCULAR HEMOGLOBIN / MEAN CORPUSCULAR HEMOGLOBIN CONCENTRATION / MEAN CORPUSCULAR VOLUME / MONOCYTE / NEUTROPHIL / NUCLEATED RED BLOOD CELLS / PLATELET COUNT: tissue Blood; for ALANINE AMINOTRANSFERASE / ALBUMIN / ALKALINE PHOSPHATASE / ASPARTATE AMINOTRANSFERASE / BLOOD UREA NITROGEN / CARBON DIOXIDE / CHLORIDE / CHOLESTEROL / CREATINE PHOSPHOKINASE / CREATININE / GLUCOSE / LACTATE DEHYDROGENASE / LIPASE / PHOSPHORUS / POTASSIUM / SODIUM / TOTAL BILIRUBIN / TOTAL PROTEIN / URIC ACID: tissue Plasma
[1] = 0 mg/kg, 72 h, dose level Control, time 3 day
[2] = 0 mg/kg, 120 h, dose level Control, time 5 day
[3] = 10 mg/kg, 72 h, dose level Low, time 3 day

## CC(C)(C#N)c1cc(Cn2cncn2)cc(C(C)(C)C#N)c1 [ANASTROZOLE]
[1]
  ABSOLUTE BASOPHIL: 0 CELLS/uL
  ABSOLUTE EOSINOPHIL: 0 CELLS/uL
  ABSOLUTE LYMPHOCYTE: 10913.67 CELLS/uL
  ABSOLUTE MONOCYTE: 85.33 CELLS/uL
  ABSOLUTE SEGMENTED NEUTROPHIL: 1401 CELLS/uL
  BASOPHIL: 0%
  EOSINOPHIL: 0%
  ERYTHROCYTE COUNT: 5.57 x10E6/uL
  HEMATOCRIT: 35.58%
  HEMOGLOBIN: 13.8 G/DL
  LEUKOCYTE COUNT: 12.4 x10E3/uL
  LYMPHOCYTE: 88%
  MEAN CORPUSCULAR HEMOGLOBIN: 24.78 pg
  MEAN CORPUSCULAR HEMOGLOBIN CONCENTRATION: 38.82 G/DL
  MEAN CORPUSCULAR VOLUME: 63.88 fL
  MONOCYTE: 0.67%
  NEUTROPHIL: 11.33%
  NUCLEATED RED BLOOD CELLS: 0 /100WBC
  PLATELET COUNT: 1162.33 x10E3/uL
  ALANINE AMINOTRANSFERASE: 53 u/L
  ALBUMIN: 4.17 G/DL
  ALKALINE PHOSPHATASE: 374.5 u/L
  ASPARTATE AMINOTRANSFERASE: 89.5 u/L
  BLOOD UREA NITROGEN: 16.33 mg/dL
  CARBON DIOXIDE: 29.17 mmol/L
  CHLORIDE: 97.67 MEQ/L
  CHOLESTEROL: 77 mg/dL
  CREATINE PHOSPHOKINASE: 464.83 u/L
  CREATININE: 0.14 mg/dL
  GLUCOSE: 164 mg/dL
  LACTATE DEHYDROGENASE: 155.5 u/L
  LIPASE: 9.17 u/L
  PHOSPHORUS: 12.4 mg/dL
  POTASSIUM: 6.91 MEQ/L
  SODIUM: 141.47 MEQ/L
  TOTAL BILIRUBIN: 0.2 mg/dL
  TOTAL PROTEIN: 5.95 G/DL
  URIC ACID: 1.72 mg/dL
[2]
  ABSOLUTE BASOPHIL: 0 CELLS/uL
  ABSOLUTE EOSINOPHIL: 20.5 CELLS/uL
  ABSOLUTE LYMPHOCYTE: 13871.67 CELLS/uL
  ABSOLUTE MONOCYTE: 60.5 CELLS/uL
  ABSOLUTE SEGMENTED NEUTROPHIL: 980.67 CELLS/uL
  BASOPHIL: 0%
  EOSINOPHIL: 0.17%
  ERYTHROCYTE COUNT: 5.65 x10E6/uL
  HEMATOCRIT: 35.63%
  HEMOGLOBIN: 14.08 G/DL
  LEUKOCYTE COUNT: 14.93 x10E3/uL
  LYMPHOCYTE: 92.83%
  MEAN CORPUSCULAR HEMOGLOBIN: 24.97 pg
  MEAN CORPUSCULAR HEMOGLOBIN CONCENTRATION: 39.55 G/DL
  MEAN CORPUSCULAR VOLUME: 63.13 fL
  MONOCYTE: 0.33%
  NEUTROPHIL: 6.67%
  NUCLEATED RED BLOOD CELLS: 0 /100WBC
  PLATELET COUNT: 1248.17 x10E3/uL
  ALANINE AMINOTRANSFERASE: 45.17 u/L
  ALBUMIN: 4.27 G/DL
  ALKALINE PHOSPHATASE: 405.67 u/L
  ASPARTATE AMINOTRANSFERASE: 74.17 u/L
  BLOOD UREA NITROGEN: 15.5 mg/dL
  CARBON DIOXIDE: 30.17 mmol/L
  CHLORIDE: 100.67 MEQ/L
  CHOLESTEROL: 57 mg/dL
  CREATINE PHOSPHOKINASE: 239.5 u/L
  CREATININE: 0.17 mg/dL
  GLUCOSE: 165.67 mg/dL
  LACTATE DEHYDROGENASE: 90.5 u/L
  LIPASE: 8.83 u/L
  PHOSPHORUS: 12.32 mg/dL
  POTASSIUM: 7.03 MEQ/L
  SODIUM: 142.65 MEQ/L
  TOTAL BILIRUBIN: 0.18 mg/dL
  TOTAL PROTEIN: 6.03 G/DL
  URIC ACID: 1.98 mg/dL
[3]
  ABSOLUTE BASOPHIL: 0 CELLS/uL
  ABSOLUTE EOSINOPHIL: 62 CELLS/uL
  ABSOLUTE LYMPHOCYTE: 13335.67 CELLS/uL
  ABSOLUTE MONOCYTE: 144.33 CELLS/uL
  ABSOLUTE SEGMENTED NEUTROPHIL: 2091.33 CELLS/uL
  BASOPHIL: 0%
  EOSINOPHIL: 0.33%
  ERYTHROCYTE COUNT: 5.84 x10E6/uL
  HEMATOCRIT: 36.23%
  HEMOGLOBIN: 14.47 G/DL
  LEUKOCYTE COUNT: 15.63 x10E3/uL
  LYMPHOCYTE: 85%
  MEAN CORPUSCULAR HEMOGLOBIN: 24.77 pg
  MEAN CORPUSCULAR HEMOGLOBIN CONCENTRATION: 39.93 G/DL
  MEAN CORPUSCULAR VOLUME: 62 fL
  MONOCYTE: 1%
  NEUTROPHIL: 13.67%
  NUCLEATED RED BLOOD CELLS: 0 /100WBC
  PLATELET COUNT: 1170.33 x10E3/uL
  ALANINE AMINOTRANSFERASE: 55.67 u/L
  ALBUMIN: 4.13 G/DL
  ALKALINE PHOSPHATASE: 405 u/L
  ASPARTATE AMINOTRANSFERASE: 89.67 u/L
  BLOOD UREA NITROGEN: 18.67 mg/dL
  CARBON DIOXIDE: 29 mmol/L
  CHLORIDE: 97 MEQ/L
  CHOLESTEROL: 77 mg/dL
  CREATINE PHOSPHOKINASE: 289.33 u/L
  CREATININE: 0.1 mg/dL
  GLUCOSE: 149.33 mg/dL
  LACTATE DEHYDROGENASE: 219.33 u/L
  LIPASE: 9.33 u/L
  PHOSPHORUS: 13.03 mg/dL
  POTASSIUM: 6.88 MEQ/L
  SODIUM: 142.57 MEQ/L
  TOTAL BILIRUBIN: 0.27 mg/dL
  TOTAL PROTEIN: 5.8 G/DL

From ChEMBL document CHEMBL3885881, “DrugMatrix”
